Tests used:
[1] = Metabolic stability in monkey plasma assessed as unchanged drug level at 185 MBq/0.1 mL, iv after 60 mins; type: ADME, organism-based, Macaca mulatta; details: rhesus monkey, read-out: Stability
[2] = Metabolic stability in monkey plasma assessed as unchanged drug level at 185 MBq/0.1 mL, iv after 30 mins; type: ADME, organism-based, Macaca mulatta; details: rhesus monkey, read-out: Stability
[3] = Metabolic stability in monkey plasma assessed as unchanged drug level at 185 MBq/0.1 mL, iv after 15 mins; type: ADME, organism-based, Macaca mulatta; details: rhesus monkey, read-out: Stability
[4] = Metabolic stability in monkey plasma assessed as unchanged drug level at 185 MBq/0.1 mL, iv after 5 mins; type: ADME, organism-based, Macaca mulatta; details: rhesus monkey, read-out: Stability
[5] = Metabolic stability in Sprague-Dawley plasma assessed as unchanged drug level at 37 MBq/0.1 mL, iv after 60 mins; type: ADME, organism-based; details: rat, read-out: Stability
[6] = Metabolic stability in Sprague-Dawley plasma assessed as unchanged drug level at 37 MBq/0.1 mL, iv after 30 mins; type: ADME, organism-based; details: rat, read-out: Stability
[7] = Metabolic stability in Sprague-Dawley plasma assessed as unchanged drug level at 37 MBq/0.1 mL, iv after 15 mins; type: ADME, organism-based; details: rat, read-out: Stability
[8] = Metabolic stability in Sprague-Dawley brain assessed as unchanged drug level at 37 MBq/0.1 mL, iv after 60 mins; type: ADME, organism-based; details: rat, read-out: Stability
[9] = Metabolic stability in Sprague-Dawley brain assessed as unchanged drug level at 37 MBq/0.1 mL, iv after 15 mins; type: ADME, organism-based; details: rat, read-out: Stability
[10] = Drug uptake in monkey pons assessed as distribution volume ratio at 185 to 220 MBq, iv after 10 to 90 mins by PET analysis; type: ADME, organism-based, Macaca mulatta; details: rhesus monkey, in vivo
[11] = Drug uptake in monkey cingulate cortex assessed as distribution volume ratio at 185 to 220 MBq, iv after 10 to 90 mins by PET analysis; type: ADME, organism-based, Macaca mulatta; details: rhesus monkey, in vivo
[12] = Drug uptake in monkey caudate assessed as distribution volume ratio at 185 to 220 MBq, iv after 10 to 90 mins by PET analysis; type: ADME, organism-based, Macaca mulatta, Caudate nucleus; details: rhesus monkey, in vivo
[13] = Drug uptake in monkey putamen at 185 to 220 MBq, iv after 10 mins by PET analysis; type: ADME, organism-based, Macaca mulatta; details: rhesus monkey, in vivo
Hippocampus = assay: Drug uptake in monkey hippocampus at 185 to 220 MBq, iv after 10 mins by PET analysis; type: ADME, organism-based, Macaca mulatta; details: rhesus monkey, in vivo
[14] = Drug uptake in monkey cingulate cortex at 185 to 220 MBq, iv after 20 mins by PET analysis; type: ADME, organism-based, Macaca mulatta; details: rhesus monkey, in vivo
[15] = Drug uptake in monkey cerebellum at 185 to 220 MBq, iv after 20 mins by PET analysis; type: ADME, organism-based, Macaca mulatta; details: rhesus monkey, in vivo
Brain [16] = assay: Drug uptake in monkey brain at 185 to 220 MBq, iv after 10 to 60 mins by PET analysis in presence of unlabeled 4-(6-chloropyrimidin-4-yl)-N-methylthiazol-2-amine; type: ADME, organism-based, Macaca mulatta; details: rhesus monkey, in vivo
Brain [17] = assay: Drug uptake in monkey brain at 185 to 220 MBq, iv after 10 to 60 mins by PET analysis in presence of unlabeled N-[4-[6-(Isopropylamino)pyrimidin-4-yl]-1,3-thiazol-2-yl]- N,4-dimethylbenzamide; type: ADME, organism-based, Macaca mulatta; details: rhesus monkey, in vivo
[18] = Drug uptake in monkey thalamus at 185 to 220 MBq, iv after 20 mins by PET analysis; type: ADME, organism-based, Macaca mulatta; details: rhesus monkey, in vivo
[19] = Drug uptake in monkey pons at 185 to 220 MBq, iv after 10 to 60 mins by PET analysis; type: ADME, organism-based, Macaca mulatta; details: rhesus monkey, in vivo
[20] = Drug uptake in monkey cingulate cortex at 185 to 220 MBq, iv after 10 to 60 mins by PET analysis; type: ADME, organism-based, Macaca mulatta; details: rhesus monkey, in vivo
Muscle tissue = assay: Biodistribution in ddY mouse muscle at 4.8 MBq/0.1 mL after 90 mins by gamma counting; type: ADME, organism-based; details: in vivo, 1.5 h
Liver [21] = assay: Biodistribution in ddY mouse liver at 4.8 MBq/0.1 mL after 90 mins by gamma counting; type: ADME, organism-based; details: in vivo, 1.5 h
Lung [22] = assay: Biodistribution in ddY mouse lung at 4.8 MBq/0.1 mL after 90 mins by gamma counting; type: ADME, organism-based; details: in vivo, 1.5 h
Blood [23] = assay: Biodistribution in ddY mouse blood at 4.8 MBq/0.1 mL after 90 mins by gamma counting; type: ADME, organism-based; details: in vivo, 1.5 h
Kidney = assay: Biodistribution in ddY mouse kidney at 4.8 MBq/0.1 mL after 60 mins by gamma counting; type: ADME, organism-based; details: in vivo, 1 h
Spleen [24] = assay: Biodistribution in ddY mouse spleen at 4.8 MBq/0.1 mL after 60 mins by gamma counting; type: ADME, organism-based; details: in vivo, 1 h
Liver [25] = assay: Biodistribution in ddY mouse liver at 4.8 MBq/0.1 mL after 60 mins by gamma counting; type: ADME, organism-based; details: in vivo, 1 h
Lung [26] = assay: Biodistribution in ddY mouse lung at 4.8 MBq/0.1 mL after 60 mins by gamma counting; type: ADME, organism-based; details: in vivo, 1 h
Blood [27] = assay: Biodistribution in ddY mouse blood at 4.8 MBq/0.1 mL after 60 mins by gamma counting; type: ADME, organism-based; details: in vivo, 1 h
Pancreas = assay: Biodistribution in ddY mouse pancreas at 4.8 MBq/0.1 mL after 30 mins by gamma countingeas; type: ADME, organism-based; details: in vivo, 0.5 h
Lung [28] = assay: Biodistribution in ddY mouse lung at 4.8 MBq/0.1 mL after 30 mins by gamma counting; type: ADME, organism-based; details: in vivo, 0.5 h
Heart [29] = assay: Biodistribution in ddY mouse heart at 4.8 MBq/0.1 mL after 30 mins by gamma counting; type: ADME, organism-based; details: in vivo, 0.5 h
Brain [30] = assay: Biodistribution in ddY mouse brain at 4.8 MBq/0.1 mL after 15 mins by gamma counting; type: ADME, organism-based; details: in vivo, 0.25 h
Mus musculus [31] = species: Mus musculus; assay: Biodistribution in ddY mouse large intestine at 4.8 MBq/0.1 mL after 15 mins by gamma counting; type: ADME, organism-based; details: in vivo, 0.25 h
Mus musculus [32] = species: Mus musculus; assay: Biodistribution in ddY mouse small intestine at 4.8 MBq/0.1 mL after 15 mins by gamma counting; type: ADME, organism-based; details: in vivo, 0.25 h
Spleen [33] = assay: Biodistribution in ddY mouse spleen at 4.8 MBq/0.1 mL after 15 mins by gamma counting; type: ADME, organism-based; details: in vivo, 0.25 h
Blood [34] = assay: Biodistribution in ddY mouse blood at 4.8 MBq/0.1 mL after 15 mins by gamma counting; type: ADME, organism-based; details: in vivo, 0.25 h
Mus musculus [35] = species: Mus musculus; assay: Biodistribution in ddY mouse small intestine at 4.8 MBq/0.1 mL after 5 mins by gamma counting; type: ADME, organism-based; details: in vivo
Lung [36] = assay: Biodistribution in ddY mouse lung at 4.8 MBq/0.1 mL after 5 mins by gamma counting; type: ADME, organism-based; details: in vivo
Blood [37] = assay: Biodistribution in ddY mouse blood at 4.8 MBq/0.1 mL after 5 mins by gamma counting; type: ADME, organism-based; details: in vivo
Mus musculus [38] = species: Mus musculus; assay: Biodistribution in ddY mouse testis at 4.8 MBq/0.1 mL after 1 min by gamma counting; type: ADME, organism-based; details: in vivo
Mus musculus [39] = species: Mus musculus; assay: Biodistribution in ddY mouse small intestine at 4.8 MBq/0.1 mL after 1 min by gamma counting; type: ADME, organism-based; details: in vivo
Spleen [40] = assay: Biodistribution in ddY mouse spleen at 4.8 MBq/0.1 mL after 1 min by gamma counting; type: ADME, organism-based; details: in vivo
Liver [41] = assay: Biodistribution in ddY mouse liver at 4.8 MBq/0.1 mL after 1 min by gamma counting; type: ADME, organism-based; details: in vivo
Lung [42] = assay: Biodistribution in ddY mouse lung at 4.8 MBq/0.1 mL after 1 min by gamma counting; type: ADME, organism-based; details: in vivo
Heart [43] = assay: Biodistribution in ddY mouse heart at 4.8 MBq/0.1 mL after 1 min by gamma counting; type: ADME, organism-based; details: in vivo
Blood [44] = assay: Biodistribution in ddY mouse blood at 4.8 MBq/0.1 mL after 1 min by gamma counting; type: ADME, organism-based; details: in vivo

## CC(C)Nc1cc(-c2csc(N(C)C(=O)c3ccc([14CH3])cc3)n2)ncn1
[1]
  remaining at 1 h: 28.4%
[2]
  remaining at 0.5 h: 35.8%
[3]
  remaining at 0.25 h: 43.1%
[4]
  remaining at 5 min: 70.2%
[5]
  remaining at 1 h: 33.9%
[6]
  remaining at 0.5 h: 39%
[7]
  remaining at 0.25 h: 47.6%
[8]
  remaining at 1 h: 98.2%
[9]
  remaining at 0.25 h: 95.2%
[10]
  Ratio: 1
[11]
  Ratio: 2.6
[12]
  Ratio: 1.5
[13]
  Drug uptake: Active
Hippocampus
  Drug uptake: Active
[14]
  SUV: 0.9
[15]
  SUV: 1.2
Brain [16]
  Drug uptake: Not Active
Brain [17]
  Drug uptake: Not Active
[18]
  SUV: 0.8
[19]
  Drug uptake: Active
[20]
  Drug uptake: Active
Muscle tissue
  Drug uptake: 0.17 % ID/g
Liver [21]
  Drug uptake: 0.3 % ID/g
Lung [22]
  Drug uptake: 0.12 % ID/g
Blood [23]
  Drug uptake: 0.02 % ID/g
Kidney
  Drug uptake: 0.22 % ID/g
Spleen [24]
  Drug uptake: 0.02 % ID/g
Liver [25]
  Drug uptake: 0.51 % ID/g
Lung [26]
  Drug uptake: 0.2 % ID/g
Blood [27]
  Drug uptake: 0.05 % ID/g
Pancreas
  Drug uptake: 0.06 % ID/g
Lung [28]
  Drug uptake: 0.31 % ID/g
Heart [29]
  Drug uptake: 0.09 % ID/g
Brain [30]
  Drug uptake: 1.99 % ID/g
Mus musculus [31]
  Drug uptake: 1.2 % ID/g
Mus musculus [32]
  Drug uptake: 41.52 % ID/g
Spleen [33]
  Drug uptake: 0.29 % ID/g
Blood [34]
  Drug uptake: 0.37 % ID/g
Mus musculus [35]
  Drug uptake: 66.76 % ID/g
Lung [36]
  Drug uptake: 2.56 % ID/g
Blood [37]
  Drug uptake: 1.27 % ID/g
Mus musculus [38]
  Drug uptake: 1.07 % ID/g
Mus musculus [39]
  Drug uptake: 10.07 % ID/g
Spleen [40]
  Drug uptake: 1.74 % ID/g
Liver [41]
  Drug uptake: 11.47 % ID/g
Lung [42]
  Drug uptake: 5.48 % ID/g
Heart [43]
  Drug uptake: 4.93 % ID/g
Blood [44]
  Drug uptake: 3.09 % ID/g
